Results taken from the Deep4Chem optical property database.

Assay: solvent given as SMILES

CCN(CC)c1ccc2c(-c3ccc(S(=O)(=O)O)cc3S(=O)(=O)[O-])c3ccc(=[N+](CC)CC)cc-3oc2c1
fluorescence lifetime (in CC#N): 2.47 ns
fluorescence lifetime (in CCO): 3 ns
fluorescence lifetime (in CN(C)C=O): 2.91 ns
fluorescence lifetime (in O): 1.78 ns

O=C1O[B-]2(OC1=O)OC(c1ccccc1)=CC(c1ccc3ccccc3c1)=[O+]2
fluorescence lifetime (in CC#N): 5.4 ns
fluorescence lifetime (in ClC(Cl)(Cl)Cl): 1.6 ns

CC(C)(C)c1ccc(C2=C(c3ccc(-n4c5ccccc5c5ccccc54)cc3)S(=O)(=O)c3c2sc(-c2ccc(-n4c5ccccc5c5ccccc54)cc2)c3-c2ccc(C(C)(C)C)cc2)cc1
fluorescence lifetime (in C1CCOC1): 0.47 ns

COc1cc2cc(OC)c(-c3ccc([N+](=O)[O-])cc3)cc2cc1-c1ccc([N+](=O)[O-])cc1
fluorescence lifetime (in ClC(Cl)Cl): 0.62 ns
fluorescence lifetime (in ClCCl): 0.53 ns

C[Si]1(C)c2cc(-c3ccc(-c4cccs4)s3)ccc2C=Cc2ccc(-c3ccc(-c4cccs4)s3)cc21
fluorescence lifetime (in ClCCl): 0.94 ns

O=Cc1ccc(C2=C3C=c4c(oc5ccccc45)=[N+]3[B-](F)(F)n3c2cc2c4ccccc4oc23)cc1
fluorescence lifetime (in C1CCCCC1): 2.47 ns
fluorescence lifetime (in C1CCOC1): 2.09 ns
fluorescence lifetime (in CC#N): 2.38 ns
fluorescence lifetime (in CCOC(C)=O): 2.12 ns
fluorescence lifetime (in CN(C)C=O): 2.3 ns
fluorescence lifetime (in CO): 2.73 ns
fluorescence lifetime (in Cc1ccccc1): 2.44 ns
fluorescence lifetime (in ClCCl): 2.49 ns

c1ccc(-c2ccc(-c3ccc(-c4cc(-c5ccc(-c6ccc(-c7ccccc7)cc6)cc5)cc(-c5ccc(-c6ccc(-c7ccccc7)cc6)cc5)c4)cc3)cc2)cc1
fluorescence lifetime (in C1COCCO1): 1.05 ns

COc1ccc(-c2ccc(OC)cc2)cc1
fluorescence lifetime (in C1CCCCC1): 17.7 ns

COc1cc(/C=C/C(=O)CC(=O)/C=C/c2ccc(O)c(OC)c2)ccc1O
fluorescence lifetime (in C1CCCCC1): 0.064 ns
fluorescence lifetime (in CC#N): 0.376 ns
fluorescence lifetime (in CN(C)C=O): 0.194 ns
fluorescence lifetime (in CO): 0.148 ns
fluorescence lifetime (in CS(C)=O): 0.196 ns
fluorescence lifetime (in c1ccccc1): 0.201 ns

c1cc2ccc3ccc4cc3c2cc1c1ccc2ccc3ccc(cc3c2c1)c1ccc2ccc3ccc4cc3c2c1
fluorescence lifetime (in Cc1ccccc1): 6.5 ns

C[Si](C)(C)C#Cc1ccc(C#C[Si](C)(C)C)c2ccccc12
fluorescence lifetime (in C1CCCCC1): 2 ns

COc1c2ccccc2c(OC)c2c1c1ccc(C)cc1n2C
fluorescence lifetime (in C1CCCCC1): 20.6 ns
fluorescence lifetime (in CC#N): 25.8 ns
fluorescence lifetime (in CO): 22.9 ns
fluorescence lifetime (in ClCCl): 22 ns

CCN(CC)c1ccc(/N=N/c2nc3ccc([N+](=O)[O-])cc3s2)cc1
fluorescence lifetime (in CC#N): 6.03 ns
fluorescence lifetime (in ClCCl): 8.14 ns

N#C/C(=C\c1ccc(-c2ccncc2)cc1)c1ccc(-c2ccncc2)cc1
fluorescence lifetime (in ClCCl): 0.1 ns

c1ccc2c(c1)OP1(=NP(Oc3ccc4ccc5cccc6ccc3c4c56)(Oc3ccc4ccc5cccc6ccc3c4c56)=NP(Oc3ccc4ccc5cccc6ccc3c4c56)(Oc3ccc4ccc5cccc6ccc3c4c56)=N1)Oc1ccccc1-2
fluorescence lifetime (in ClCCl): 1.23 ns

COc1ccc2c(c1)C(=O)c1ccccc1-2
fluorescence lifetime (in C1CCCCC1): 9.9 ns
fluorescence lifetime (in CC#N): 1.8 ns

Cc1ccc(-[c+]2c3ccccc3oc3ccccc32)cc1
fluorescence lifetime (in CC#N): 2.1 ns

F[B-]1(F)n2c(c3ccccc3c2-c2ccccc2)C(c2ccccc2)=C2c3ccccc3C(c3ccccc3)=[N+]21
fluorescence lifetime (in ClCCl): 5.2 ns

Cc1ccc(C(=O)c2c(C)c3ccc4cccc5c6cccc7ccc2c(c76)c3c45)cc1
fluorescence lifetime (in ClCCl): 3.6 ns

N#Cc1cc(N2c3ccccc3Oc3ccccc32)cc(N2c3ccccc3Oc3ccccc32)c1
fluorescence lifetime (in Cc1ccccc1): 26.1 ns

CCOC(=O)C1=CN(Cc2ccccc2)C=C(C(=O)OCC)C1
fluorescence lifetime (in C1CCOC1): 25.6 ns
fluorescence lifetime (in CO): 28.2 ns

CCCCOc1ccc(-c2oc3cc4n(c3c2-c2ccc(OCCCC)cc2)[B-](F)(F)[N+]2=Cc3cc5oc(-c6ccc(OCCCC)cc6)c(-c6ccc(OCCCC)cc6)c5n3[B-](F)(F)[N+]2=C4)cc1
fluorescence lifetime (in ClCCl): 1.97 ns

N#Cc1ccc(N(c2ccc(C#N)cc2)c2ccc3c4cccc5c(N(c6ccc(C#N)cc6)c6ccc(C#N)cc6)ccc(c6cccc2c63)c54)cc1
fluorescence lifetime (in ClCCl): 3.54 ns

COc1ccc(-c2c3ccccc3c(C#Cc3ccccc3)c3cc4cc(C)sc4cc23)cc1
fluorescence lifetime (in ClCCl): 7.1 ns

Cc1ccc(C2=C3C=C(I)C=[N+]3[B-](F)(F)n3cccc32)cc1
fluorescence lifetime (in C1CCCCC1): 0.184 ns
fluorescence lifetime (in CC#N): 0.06 ns
fluorescence lifetime (in CCO): 0.07 ns
fluorescence lifetime (in CCOC(C)=O): 0.082 ns
fluorescence lifetime (in CO): 0.063 ns
fluorescence lifetime (in OCC(F)(F)F): 0.069 ns

CC(=O)c1ccc(-c2ccc3c(c2)C(=O)c2cc(-c4ccc(C(C)=O)cc4)ccc2-3)cc1
fluorescence lifetime (in C1CCOC1): 1.2 ns

C=CCOc1ccc(-c2nc3cc(C(NC(=O)OC(C)(C)C)C(=O)OC)ccc3o2)cc1 (configuration not stated)
fluorescence lifetime (in CC1CCCCC1): 1.05 ns
fluorescence lifetime (in CC#N): 1.14 ns
fluorescence lifetime (in CO): 1.21 ns

CCCCCCOc1ccc2oc3c(c2c1)=CC1=C(c2ccccc2C)c2cc4c5cc(OCCCCCC)ccc5oc4n2[B-](F)(F)[N+]=31
fluorescence lifetime (in C1CCCCC1): 4.12 ns
fluorescence lifetime (in CCOC(C)=O): 3.81 ns
fluorescence lifetime (in CO): 1.67 ns

N#Cc1c(-n2c3ccc(Br)cc3c3cc(Br)ccc32)c(C#N)c(-n2c3ccc(Br)cc3c3cc(Br)ccc32)c(-n2c3ccc(Br)cc3c3cc(Br)ccc32)c1-n1c2ccc(Br)cc2c2cc(Br)ccc21
fluorescence lifetime (in Cc1ccccc1): 0.4 ns

CCC1(CC)c2cc(Br)ccc2-c2c1c1c(c3c2C(CC)(CC)c2cc(-c4cccs4)ccc2-3)C(CC)(CC)c2cc(Br)ccc2-1
fluorescence lifetime (in C1CCOC1): 0.92 ns

CCN(CC)c1ccc2cc(C#N)/c(=N\C(C)=O)oc2c1
fluorescence lifetime (in CCO): 1.8 ns
fluorescence lifetime (in ClCCl): 4 ns

CCC1=C(C)C2=Cc3c(I)c(I)c(I)n3[B-](F)(F)[N+]2=C1C
fluorescence lifetime (in C1CCCCC1): 0.358 ns
fluorescence lifetime (in CC(C)=O): 0.198 ns
fluorescence lifetime (in CCO): 0.244 ns
fluorescence lifetime (in CCOC(C)=O): 0.236 ns
fluorescence lifetime (in CO): 0.22 ns
fluorescence lifetime (in OCC(F)(F)F): 0.18 ns

CC1=CC(C)=[N+]2C1=C(c1ccc(-c3ccc(O)cc3)s1)c1c(C)cc(C)n1[B-]2(F)F
fluorescence lifetime (in Cc1ccccc1): 3.5 ns

Cc1cccc(Nc2ccccc2C(=O)O)c1C
fluorescence lifetime (in C1CCCCC1): 2.7 ns
fluorescence lifetime (in C1CCOC1): 4.91 ns
fluorescence lifetime (in C1COCCO1): 2.38 ns
fluorescence lifetime (in CC#N): 0.558 ns
fluorescence lifetime (in CCOC(C)=O): 2.46 ns
fluorescence lifetime (in CN(C)C=O): 2.22 ns

CC1=C(C(C)(C)C)C(C)=[N+]2C1=C(C)c1c(C)c(C(C)(C)C)c(C)n1[B-]2(F)F
fluorescence lifetime (in C1CCCCC1): 3.91 ns
fluorescence lifetime (in C1CCOC1): 4.15 ns
fluorescence lifetime (in C1COCCO1): 4.37 ns
fluorescence lifetime (in CC#N): 4.27 ns
fluorescence lifetime (in CC(C)=O): 4.34 ns
fluorescence lifetime (in CC(C)CC(C)(C)C): 4.43 ns
fluorescence lifetime (in CCC(C)C): 4.19 ns
fluorescence lifetime (in CCCC(C)=O): 4.54 ns
fluorescence lifetime (in CCCCCC): 4.35 ns
fluorescence lifetime (in CCCCCCCCO): 4.68 ns
fluorescence lifetime (in CCCCCCO): 4.59 ns
fluorescence lifetime (in CCCCO): 4.33 ns
fluorescence lifetime (in CCCCOC(C)=O): 4.51 ns
fluorescence lifetime (in CCCO): 4.19 ns
fluorescence lifetime (in CCO): 4.09 ns
fluorescence lifetime (in CCOC(C)=O): 4.31 ns
fluorescence lifetime (in CCOCC): 4.27 ns
fluorescence lifetime (in CN(C)C=O): 4.69 ns
fluorescence lifetime (in CNC=O): 4.45 ns
fluorescence lifetime (in CO): 4.21 ns
fluorescence lifetime (in COC(C)=O): 4.44 ns
fluorescence lifetime (in OCC(F)(F)F): 4.64 ns

c1ccc(-c2nnc(-c3ccc(-n4c5ccccc5c5ccccc54)cc3)o2)cc1
fluorescence lifetime (in CCO): 2.01 ns

CCOC(=O)c1ccc2c(c1)[nH]c1c3ccc(C(=O)OCC)cc3sc21
fluorescence lifetime (in CCCO): 2.6 ns

N#Cc1ccc2[nH]ccc2c1
fluorescence lifetime (in C1CCOC1): 4.4 ns
fluorescence lifetime (in C1COCCO1): 4.2 ns
fluorescence lifetime (in CC#N): 4.4 ns
fluorescence lifetime (in CC(C)O): 4.6 ns
fluorescence lifetime (in CCO): 4.3 ns
fluorescence lifetime (in CO): 2.9 ns
fluorescence lifetime (in CS(C)=O): 7.1 ns
fluorescence lifetime (in NC=O): 5.4 ns
fluorescence lifetime (in O): 0.3 ns
fluorescence lifetime (in OCC(F)(F)F): 0.1 ns
fluorescence lifetime (in [2H]O[2H]): 0.4 ns

NS(=O)(=O)c1ccc(N2N=C(c3ccc(O)cc3)CC2c2ccccc2)cc1 (configuration not stated)
fluorescence lifetime (in C1CCOC1): 2.31 ns
fluorescence lifetime (in C1COCCO1): 2.36 ns
fluorescence lifetime (in CC#N): 2.38 ns
fluorescence lifetime (in CC(C)O): 1.86 ns
fluorescence lifetime (in CCO): 1.93 ns
fluorescence lifetime (in CCOC(C)=O): 2.27 ns
fluorescence lifetime (in CN(C)C=O): 2.4 ns
fluorescence lifetime (in CO): 1.62 ns
fluorescence lifetime (in CS(C)=O): 2.45 ns
fluorescence lifetime (in O): 3.16 ns

CC(C)(C)c1ccc2c(c1)c1cc(C(C)(C)C)ccc1n2-c1cccc2c1Oc1c(-c3nc(-c4ccccc4)nc(-c4ccccc4)n3)cccc1C2(C)C
fluorescence lifetime (in Cc1ccccc1): 4 ns

CCCCCCCCN1c2ccc(C#Cc3ccc(C(F)(F)F)cc3)cc2Sc2cc(C=O)ccc21
fluorescence lifetime (in C1CCOC1): 8.1 ns
fluorescence lifetime (in CC#N): 6.52 ns
fluorescence lifetime (in CCCCCC): 6.45 ns
fluorescence lifetime (in CO): 4.04 ns
fluorescence lifetime (in CS(C)=O): 7.77 ns
fluorescence lifetime (in Cc1ccccc1): 7.43 ns
fluorescence lifetime (in ClC(Cl)Cl): 7.03 ns

Oc1cc2ccc3cc(O)cc4ccc(c1)c2c34
fluorescence lifetime (in CO): 29 ns

CCOC(=O)C1(O)c2cc3ccc4cccc5ccc(c2C(=O)N1C(C)(C)C)c3c45 (configuration not stated)
fluorescence lifetime (in ClC(Cl)Cl): 5.11 ns

FC(F)(F)c1ccc(C2=CC3=c4cc(-c5ccc(C(F)(F)F)cc5)c5nc(C(F)(F)C(F)(F)C(F)(F)F)nc6c(-c7ccc(C(F)(F)F)cc7)cc(c4c65)C4=CC(c5ccc(C(F)(F)F)cc5)=C5N=C(C(F)(F)C(F)(F)C(F)(F)F)N=C2C5C43)cc1 (configuration not stated)
fluorescence lifetime (in C1CCOC1): 2.8 ns

Cc1cc(C)c(B(c2ccc(-c3cc4ccc5cccc6ccc(c3)c4c56)cc2)c2c(C)cc(C)cc2C)c(C)c1
fluorescence lifetime (in Cc1ccccc1): 65 ns

CCCCCCCCCCCCNc1cccc2[n+]1[B-](F)(F)n1c(c3cccc4cccc1c43)=N2
fluorescence lifetime (in ClCCl): 2.5 ns

COc1ccc(C#Cc2ccc(-c3nn[nH]n3)cc2)cc1OC
fluorescence lifetime (in C1CCOC1): 0.94 ns
fluorescence lifetime (in C1COCCO1): 0.81 ns
fluorescence lifetime (in CC#N): 0.46 ns
fluorescence lifetime (in CCOC(C)=O): 0.86 ns
fluorescence lifetime (in CS(C)=O): 0.66 ns
fluorescence lifetime (in Cc1ccccc1): 0.73 ns

COc1ccc(C2=CC(c3cc(OC)cc(OC)c3)=[O+][B-](F)(F)O2)cc1
fluorescence lifetime (in ClCCl): 7.4 ns

O=c1c2cc(Cl)ccc2[nH]c2ccc(COO)cc12
fluorescence lifetime (in O): 16.8 ns

CC(C)(C)c1ccc(-c2nnc(-c3c(-n4c5ccccc5c5ccccc54)c(-n4c5ccccc5c5ccccc54)c(-n4c5ccccc5c5ccccc54)c(-n4c5ccccc5c5ccccc54)c3-n3c4ccccc4c4ccccc43)o2)cc1
fluorescence lifetime (in Cc1ccccc1): 2.9 ns

O=C1c2ccc3c4c(Oc5ccccc5)cc5c6c(ccc(c7c(Oc8ccccc8)cc(c2c37)C(=O)N1c1ccc(O)cc1)c64)C(=O)N(c1ccc(O)cc1)C5=O
fluorescence lifetime (in C1CCOC1): 7.52 ns
fluorescence lifetime (in CN1CCCC1=O): 1.62 ns
fluorescence lifetime (in CN(C)C=O): 0.05 ns
